Data published in ChEMBL document CHEMBL1144892, “Synthesis and biological activity of various derivatives of a novel class of potent, selective, and orally active prostaglandin D2 receptor antagonists. 2. 6,6-Dimethylbicyclo[3.1.1]heptane derivatives” (J Med Chem, 2003).

Experiments:
[1] = molecular target: T1, Prostaglandin D2 receptor (Homo sapiens, UniProt Q13258); test: Concentration required to inhibit the PGD-2 evoked cAMP formation in human platelets; type: functional
T1 sequence (Q13258 whole entry): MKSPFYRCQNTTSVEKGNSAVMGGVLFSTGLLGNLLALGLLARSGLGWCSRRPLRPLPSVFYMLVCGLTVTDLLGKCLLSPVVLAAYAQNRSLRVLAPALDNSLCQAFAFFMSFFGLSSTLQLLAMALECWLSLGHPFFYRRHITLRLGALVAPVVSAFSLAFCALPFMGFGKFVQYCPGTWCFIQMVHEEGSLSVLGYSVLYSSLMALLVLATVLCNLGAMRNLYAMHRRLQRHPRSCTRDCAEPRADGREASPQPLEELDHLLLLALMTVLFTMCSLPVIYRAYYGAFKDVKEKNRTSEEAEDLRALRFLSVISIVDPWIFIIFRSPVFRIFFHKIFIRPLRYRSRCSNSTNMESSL

[2] = molecular target: T1, Prostaglandin D2 receptor; test: Prostaglandin D2 receptor antagonist activity, evaluated by inhibition of [3H]PGD-2 binding to human platelet membranes
Cavia porcellus [3] = test: In vivo inhibition of antigen-induced increase in intranasal pressure in actively sensitized guinea pig administered perorally with 10 mg/Kg compound, 10 minutes before the antigen challenge; type: functional; conditions: oral
Cavia porcellus [4] = test: In vivo percent inhibition against antigen induced increase in intranasal pressure in actively sensitized guinea pig administered intravenously with 1 mg/Kg of compound; type: functional
Cavia porcellus [5] = test: In vivo inhibition of antigen-induced increase in intranasal pressure in actively sensitized guinea pig administered intravenously with 1 mg/Kg compound, 10 minutes before the antigen challenge; type: functional
Cavia porcellus [6] = test: In vivo inhibition of antigen-induced increase in intranasal pressure in actively sensitized guinea pig administered perorally with 3 mg/Kg compound, 10 minutes before the antigen challenge; type: functional; conditions: inhaled or nasal
Cavia porcellus [7] = test: Effective dose required to inhibit conjuctival microvascular permeability caused by topical application of 0.1% antigen in guinea pig administered perorally with compound, 1 hour before the test; type: functional
Cavia porcellus [8] = test: Percent inhibition against increase in specific airway resistance by antigen inhalation in conscious guinea pig administered perorally with 10 mg/Kg of compound, 1 hr before the test; type: functional
Cavia porcellus [9] = test: Effective dose required to inhibit conjuctival microvascular permeability caused by topical application of 0.1% PGD-2 in guinea pig administered perorally with compound, 1 hour before the test; type: functional
Cavia porcellus [10] = test: Compound at 10 mg/kg was tested for the inhibition of increase in eosinophil number in nasal lavage fluid at 5 hr after intranasal antigen challenge in actively sensitized guinea pig; type: functional; conditions: inhaled or nasal
Cavia porcellus [11] = test: Compound at 10 mg/kg was tested for the inhibition of increase in eosinophil number in bronchoalveolar lavage fluid at 72 hr after inhalation of aerosol antigen in actively sensitized guinea pig; type: functional; conditions: Lung, inhaled or nasal
Cavia porcellus [12] = test: Percent inhibition against antigen induced increase in intranasal pressure in actively sensitized guinea pig administered intravenously with 1 mg/Kg of compound; type: functional

| Compound | IC50 [1] [nM] | IC50 [2] [nM] | further results |
| --- | --- | --- | --- |
| CC1(C)[C@H]2C[C@H](C/C=C/CCCC(=O)O)[C@@H](NC(=O)c3csc4cc(O)ccc34)[C@@H]1C2 | 18 | 2.2 | inhibition in vivo at 10 mg/kg (Cavia porcellus [3]): 88% |
| CC1(C)[C@H]2C[C@H](C/C=C/CCCC(=O)O)[C@@H](NC(=O)Cc3ccoc3)[C@@H]1C2 | 17 | 560 | – |
| CC1(C)[C@H]2C[C@H](C/C=C/CCCC(=O)O)[C@@H](NC(=O)c3cc4ccccc4o3)[C@@H]1C2 | 76 | 690 | – |
| CC1(C)[C@H]2C[C@H](C/C=C/CCCC(=O)O)[C@@H](NC(=O)c3ccc4c(c3)OCO4)[C@@H]1C2 | 170 | 2100 | – |
| CC1(C)[C@H]2C[C@H](C/C=C/CCCC(=O)O)[C@@H](NC(=O)c3csc(-c4ccccc4)c3)[C@@H]1C2 | 100 | 42 | – |
| Cc1scc(C(=O)N[C@@H]2[C@@H](C/C=C/CCCC(=O)O)C[C@H]3C[C@@H]2C3(C)C)c1-c1ccccc1 | 74 | 590 | – |
| COc1ccccc1C(=O)N[C@@H]1[C@@H](C/C=C/CCCC(=O)O)C[C@H]2C[C@@H]1C2(C)C | 320 | 4600 | – |
| CC1(C)[C@H]2C[C@H](C/C=C/CCCC(=O)O)[C@@H](NC(=O)c3c[nH]c4ccccc34)[C@@H]1C2 | 110 | 520 | – |
| Cc1sccc1C(=O)N[C@@H]1[C@@H](C/C=C/CCCC(=O)O)C[C@H]2C[C@@H]1C2(C)C | 20 | 180 | – |
| CN(C(=O)c1ccccc1)[C@@H]1[C@@H](C/C=C/CCCC(=O)O)C[C@H]2C[C@@H]1C2(C)C | > 1000 | > 10000 | – |
| CC1(C)[C@H]2C[C@H](C/C=C/CCCC(=O)O)[C@@H](NC(=O)c3cccs3)[C@@H]1C2 | 15 | 3300 | Inhibition (Cavia porcellus [4]): 38% |
| CC1(C)[C@H]2C[C@H](C/C=C\CCCC(=O)O)[C@@H](NS(=O)(=O)c3ccc(-c4ccccc4)cc3)[C@@H]1C2 | 530 | 1200 | – |
| CC1(C)[C@H]2C[C@H](CC(=O)CCCCC(=O)O)[C@@H](NC(=O)c3ccsc3)[C@@H]1C2 | > 1000 | > 10000 | – |
| CC1(C)[C@H]2C[C@H](C/C=C/CCCC(=O)O)[C@@H](NC(=O)c3csc4ccc(NS(C)(=O)=O)cc34)[C@@H]1C2 | 30 | 7500 | – |
| CC1(C)[C@H]2C[C@@H](NC(=O)c3ccc(-c4ccccc4)cc3)[C@H](C/C=C\CCCC(=O)O)[C@@H]1C2 | > 1000 | 3600 | – |
| CC1(C)[C@H]2C[C@@H](NS(=O)(=O)c3ccc(-c4ccccc4)cc3)[C@H](C/C=C\CCCC(=O)O)[C@@H]1C2 | > 1000 | 1300 | – |
| CC1(C)[C@H]2C[C@H](C/C=C\CCCC(=O)O)[C@@H](NC(=O)c3ccc(/N=N/c4ccccc4)cc3)[C@@H]1C2 | – | – | inhibition in vivo at 1 mg/kg (Cavia porcellus [5]): 60% |
| CC1(C)[C@H]2C[C@H](C/C=C\CCCC(=O)O)[C@@H](NC(=O)c3ccccc3)[C@@H]1C2 | – | – | inhibition in vivo at 1 mg/kg (Cavia porcellus [5]): 52% |
| Cn1ccc(C(=O)N[C@@H]2[C@@H](C/C=C/CCCC(=O)O)C[C@H]3C[C@@H]2C3(C)C)c1 | 110 | 420 | – |
| CC1(C)[C@H]2C[C@H](C/C=C/CCCC(=O)O)[C@@H](NC(=O)c3csc4ccc(F)cc34)[C@@H]1C2 | 3.2 | 0.42 | inhibition in vivo at 3 mg/kg (Cavia porcellus [6]): 86%; ED50 (Cavia porcellus [7]): 8.9 mg/kg; Inhibition (Cavia porcellus [8]): 69%; ED50 (Cavia porcellus [9]): 3.5 mg/kg |
| CC1(C)[C@H]2C[C@H](C/C=C/CCCC(=O)O)[C@@H](NC(=O)c3ccc[nH]3)[C@@H]1C2 | 37 | – | – |
| CC1(C)[C@H]2C[C@H](C/C=C/CCCC(=O)O)[C@@H](NC(=O)c3ccc4ccccc4c3)[C@@H]1C2 | 73 | – | – |

| Compound | IC50 [1] [nM] | IC50 [2] [nM] | further results |
| --- | --- | --- | --- |
| Cc1cc(C(=O)N[C@@H]2[C@@H](C/C=C/CCCC(=O)O)C[C@H]3C[C@@H]2C3(C)C)cs1 | 25 | 13 | – |
| CC1(C)[C@H]2C[C@H](C/C=C/CCCC(=O)O)[C@@H](NC(=O)c3csc4ccc(O)cc34)[C@@H]1C2 | 0.9 | 1.9 | inhibition in vivo at 10 mg/kg (Cavia porcellus [10]): 80%; inhibition in vivo at 3 mg/kg (Cavia porcellus [6]): 64%; ED50 (Cavia porcellus [7]): 2 mg/kg; inhibition in vivo at 10 mg/kg (Cavia porcellus [11]): 43%; inhibition in vivo at 10 mg/kg (Cavia porcellus [3]): 96%; Inhibition (Cavia porcellus [8]): 70%; ED50 (Cavia porcellus [9]): 0.12 mg/kg |
| CN(C(=O)c1ccsc1)[C@@H]1[C@@H](C/C=C/CCCC(=O)O)C[C@H]2C[C@@H]1C2(C)C | > 1000 | > 10000 | – |
| CC1(C)[C@H]2C[C@H](C/C=C/CCCc3nnn[nH]3)[C@@H](NC(=O)c3ccsc3)[C@@H]1C2 | 93 | – | – |
| COc1cscc1C(=O)N[C@@H]1[C@@H](C/C=C/CCCC(=O)O)C[C@H]2C[C@@H]1C2(C)C | 230 | 4500 | – |
| CC1(C)[C@H]2C[C@H](C/C=C/CCCC(=O)O)[C@@H](NC(=O)c3csc4c3CCCC4)[C@@H]1C2 | 35 | 150 | – |
| CC1(C)[C@H]2C[C@H](C/C=C/CCCC(=O)O)[C@@H](NC(=O)c3cc4ccccc4s3)[C@@H]1C2 | 390 | 19 | – |
| CC1(C)[C@H]2C[C@H](C/C=C/CCCC(=O)O)[C@@H](NC(=O)c3ccsc3)[C@@H]1C2 | 38 | 1600 | Inhibition (Cavia porcellus [12]): 77%; ED50 (Cavia porcellus [7]): 9.5 mg/kg; Inhibition (Cavia porcellus [8]): 15%; ED50 (Cavia porcellus [9]): 3.5 mg/kg |
| CC1(C)[C@H]2C[C@H](C/C=C/CCCC(=O)O)[C@@H](NC(=O)c3ccc(O)cc3)[C@@H]1C2 | 240 | 3400 | – |
| CC1(C)[C@H]2C[C@H](C/C=C/CCCC(=O)NS(C)(=O)=O)[C@@H](NC(=O)c3ccsc3)[C@@H]1C2 | 410 | 6000 | – |
| CC1(C)[C@H]2C[C@H](NS(=O)(=O)c3ccc(-c4ccccc4)cc3)[C@@H](C/C=C\CCCC(=O)O)[C@@H]1C2 | > 1000 | 1300 | – |
| CC1(C)[C@H]2C[C@H](C/C=C/CCCC(=O)O)[C@@H](NC(=O)C3CCCCC3)[C@@H]1C2 | > 1000 | > 10000 | – |
| COc1ccc(C(=O)N[C@@H]2[C@@H](C/C=C/CCCC(=O)O)C[C@H]3C[C@@H]2C3(C)C)cc1 | 190 | 3900 | – |
| CC1(C)[C@H]2C[C@H](C/C=C/CCCC(=O)O)[C@@H](NC(=O)c3cncs3)[C@@H]1C2 | 500 | > 10000 | – |
| CC1(C)[C@H]2C[C@H](C/C=C\CCCC(=O)O)[C@@H](NC(=O)c3ccc(-c4ccccc4)cc3)[C@@H]1C2 | 470 | 47 | inhibition in vivo at 1 mg/kg (Cavia porcellus [5]): 30% |
| CC1(C)[C@H]2C[C@H](NC(=O)c3ccc(-c4ccccc4)cc3)[C@@H](C/C=C\CCCC(=O)O)[C@@H]1C2 | > 1000 | 5100 | – |
| CC1(C)[C@H]2C[C@H](C/C=C/CCCC(=O)O)[C@@H](NC(=O)c3cccnc3)[C@@H]1C2 | – | 330 | – |
| COc1cc(C(=O)N[C@@H]2[C@@H](C/C=C/CCCC(=O)O)C[C@H]3C[C@@H]2C3(C)C)cs1 | 56 | 520 | – |
| CC1(C)[C@H]2C[C@H](C/C=C/CCCC(=O)O)[C@@H](NC(=O)Cc3ccccc3)[C@@H]1C2 | > 1000 | > 10000 | – |
| CC1(C)[C@H]2C[C@H](C/C=C/CCCC(=O)O)[C@@H](NC(=O)c3ccc([N+](=O)[O-])cc3)[C@@H]1C2 | 110 | 4400 | – |
| CC1(C)[C@H]2C[C@H](C/C=C/CCCC(=O)O)[C@@H](NC(=O)c3cccc4ccsc34)[C@@H]1C2 | 5.6 | 26 | inhibition in vivo at 10 mg/kg (Cavia porcellus [3]): 70% |
| CC1(C)[C@H]2C[C@H](C/C=C/CCCC(=O)O)[C@@H](NC(=O)c3csc4ccccc34)[C@@H]1C2 | 22 | 32 | inhibition in vivo at 10 mg/kg (Cavia porcellus [3]): 82% |
